Source: ChEMBL document CHEMBL6177998, “Rational Design of Dual Degraders by Incorporating Molecular Glue Structural Features into PROTAC Degraders” (J Med Chem, 2025)
Calls of active or inactive are those of the source. The calls are words filed in the database; no cut-off is given here.

How the values were obtained:
22Rv1 [1] = assay: Induction of GSPT1 degradation in human 22Rv1 cells transfected with CRBN siRNA at 30 nM incubated for 24 hrs by Western blot analysis; format: cell-based
CWR22R [2] = assay: Cell cycle arrest in human 22Rv1 cells assessed as accumulation of cells at G1 phase at 3 nM incubated for 24 hrs by flow cytometric analysis (reference value: 49.7 %); format: functional
[3] = target: T1, Protein cereblon/Eukaryotic peptide chain release factor GTP-binding subunit ERF3A (Homo sapiens, UniProt Q96SW2+P15170); assay: Molecular glue activity at CRBN/GSPT1 in human Enzalutamide-resistant LNCaP cells assessed as induction of GSPT1 degradation at 1 to 300 nM by Western blot analysis; format: cell-based; conditions: dose 1-300 nM
[4] = target: T1, Protein cereblon/Eukaryotic peptide chain release factor GTP-binding subunit ERF3A; assay: Molecular glue activity at CRBN/GSPT1 in human 22Rv1 cells assessed as induction of GSPT1 degradation at 20 nM incubated for 6 hrs by Western blot analysis (reference value: 0 %); format: cell-based
[5] = target: T1, Protein cereblon/Eukaryotic peptide chain release factor GTP-binding subunit ERF3A; assay: Molecular glue activity at CRBN/GSPT1 in human 22Rv1 cells assessed as induction of GSPT1 degradation at 20 nM incubated for 2 hrs by Western blot analysis (reference value: 0 %); format: cell-based
[6] = target: T2, Protein cereblon/Androgen receptor (Homo sapiens, UniProt P10275+Q96SW2); assay: PROTAC activity at CRBN/AR in human VCaP cells assessed as induction of AR degradation at 50 nM preincubated with MG132 followed by compound addition and measured after 12 hrs by Western blot analysis; format: cell-based
Target sequence in this assay (P10275 whole entry, looked up): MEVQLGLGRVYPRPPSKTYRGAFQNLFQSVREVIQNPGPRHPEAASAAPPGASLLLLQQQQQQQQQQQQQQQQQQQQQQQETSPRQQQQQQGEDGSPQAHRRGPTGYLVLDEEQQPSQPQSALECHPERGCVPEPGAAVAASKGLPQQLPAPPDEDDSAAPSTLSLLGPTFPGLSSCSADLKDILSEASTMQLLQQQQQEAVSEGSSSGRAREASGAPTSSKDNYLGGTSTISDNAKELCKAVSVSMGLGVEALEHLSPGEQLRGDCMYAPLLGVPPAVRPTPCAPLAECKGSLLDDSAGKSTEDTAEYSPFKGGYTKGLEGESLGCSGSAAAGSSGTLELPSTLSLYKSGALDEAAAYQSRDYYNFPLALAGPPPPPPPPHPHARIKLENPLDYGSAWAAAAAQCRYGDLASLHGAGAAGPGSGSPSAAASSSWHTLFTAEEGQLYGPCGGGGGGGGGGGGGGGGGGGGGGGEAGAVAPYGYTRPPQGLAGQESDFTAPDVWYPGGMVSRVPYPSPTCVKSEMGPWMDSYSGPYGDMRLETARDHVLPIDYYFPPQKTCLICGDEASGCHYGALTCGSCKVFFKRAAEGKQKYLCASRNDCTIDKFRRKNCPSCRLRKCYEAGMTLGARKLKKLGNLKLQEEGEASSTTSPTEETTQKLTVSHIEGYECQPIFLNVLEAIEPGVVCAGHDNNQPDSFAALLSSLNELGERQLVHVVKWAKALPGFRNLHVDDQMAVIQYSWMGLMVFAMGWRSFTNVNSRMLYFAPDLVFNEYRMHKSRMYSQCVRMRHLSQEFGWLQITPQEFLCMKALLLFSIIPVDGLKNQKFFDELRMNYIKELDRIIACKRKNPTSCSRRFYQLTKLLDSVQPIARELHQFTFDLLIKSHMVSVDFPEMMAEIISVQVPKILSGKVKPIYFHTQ
Target sequence in this assay (Q96SW2 whole entry, looked up): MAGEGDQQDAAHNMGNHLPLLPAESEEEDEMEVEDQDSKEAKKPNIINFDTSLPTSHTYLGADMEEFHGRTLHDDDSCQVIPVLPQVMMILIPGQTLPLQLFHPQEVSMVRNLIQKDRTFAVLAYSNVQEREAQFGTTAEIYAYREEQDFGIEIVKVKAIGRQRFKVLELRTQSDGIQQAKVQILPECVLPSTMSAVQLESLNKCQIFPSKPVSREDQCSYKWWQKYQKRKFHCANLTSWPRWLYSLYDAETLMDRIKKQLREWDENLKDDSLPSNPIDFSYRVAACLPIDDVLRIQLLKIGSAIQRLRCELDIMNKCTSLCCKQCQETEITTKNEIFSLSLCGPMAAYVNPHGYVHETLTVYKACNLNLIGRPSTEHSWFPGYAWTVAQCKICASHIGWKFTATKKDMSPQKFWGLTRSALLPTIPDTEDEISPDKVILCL

[7] = target: T2, Protein cereblon/Androgen receptor; assay: PROTAC activity at CRBN/AR in human 22Rv1 cells assessed as induction of AR degradation at 20 nM incubated for 1 hrs by Western blot analysis (reference value: 0 %); format: cell-based
Target sequence in this assay (P10275 whole entry, looked up): as the sequence (P10275 whole entry, looked up) above
Target sequence in this assay (Q96SW2 whole entry, looked up): as the sequence (Q96SW2 whole entry, looked up) above

[8] = target: Cereblon/Ikaros (Homo sapiens) (UniProt Q96SW2+Q13422); assay: Molecular glue activity at CRBN/IKZF1 in human 22Rv1 cells assessed as induction of IKZF1 degradation at 1 uM incubated for 6 hrs by Western blot analysis; format: cell-based
[9] = target: T1, Protein cereblon/Eukaryotic peptide chain release factor GTP-binding subunit ERF3A; assay: Molecular glue activity at CRBN/GSPT1 in human 22Rv1 cells assessed as induction of GSPT1 degradation at 0.01 uM incubated for 6 hrs by Western blot analysis; format: cell-based
[10] = target: T1, Protein cereblon/Eukaryotic peptide chain release factor GTP-binding subunit ERF3A; assay: Molecular glue activity at CRBN/GSPT1 in human VCaP cells assessed as induction of GSPT1 degradation at 20 nM measured after 6 hrs by Western blot analysis; format: cell-based
[11] = tested on: Protein cereblon/Androgen receptor (Homo sapiens), P10275+Q96SW2 [UNDEFINED MUTATION]; assay: PROTAC activity at CRBN/Androgen receptor splice variant 7 in human Enzalutamide-resistant VCaP cells assessed as induction of AR-V7 degradation at 1 to 300 nM by Western blot analysis; format: cell-based; conditions: dose 1-300 nM
LNCaP = assay: Antitumor activity against human LNCaP cells xenografted in NOD SCID male mouse model assessed as tumor growth inhibition at 20 mg/kg, po administered daily for 26 days relative to control; format: functional; conditions: 624 h, time 26 day, read-out: TGI
[12] = target: T1, Protein cereblon/Eukaryotic peptide chain release factor GTP-binding subunit ERF3A; assay: Molecular glue activity at CRBN/GSPT1 in human 22Rv1 cells assessed as induction of GSPT1 degradation at 0.1 uM incubated for 24 hrs by Western blot analysis relative to control; format: cell-based
[13] = target: T2, Protein cereblon/Androgen receptor; assay: PROTAC activity at CRBN/AR in human 22Rv1 cells assessed as decrease in FKBP5 mRNA level at 1 to 3 nM incubated for 24 hrs by qRT-PCR analysis; format: cell-based; conditions: dose 1-3 nM
Target sequence in this assay (P10275 whole entry, looked up): as the sequence (P10275 whole entry, looked up) above
Target sequence in this assay (Q96SW2 whole entry, looked up): as the sequence (Q96SW2 whole entry, looked up) above

[14] = Antiproliferative activity against human Enzalutamide-resistant LNCaP cells assessed as cell growth inhibition incubated for 72 hrs by Celltiter-lumi luminescent cell viability assay; format: functional, cell-based
22Rv1 [15] = assay: Induction of AR degradation in human 22Rv1 cells transfected with CRBN siRNA at 30 nM incubated for 24 hrs by Western blot analysis; format: cell-based
[16] = Selectivity ratio of IC50 for antiproliferative activity against AR-independent human DU-145 cells assessed as cell growth inhibition to IC50 for antiproliferative activity against AR-dependent human VCaP cells assessed as cell growth inhibition; format: functional
[17] = target: T2, Protein cereblon/Androgen receptor; assay: PROTAC activity at CRBN/AR in human LNCaP cells assessed as induction of AR degradation by measuring maximal efficacy incubated for 24 hrs by Western blot analysis relative to control; format: cell-based
Target sequence in this assay (P10275 whole entry, looked up): as the sequence (P10275 whole entry, looked up) above
Target sequence in this assay (Q96SW2 whole entry, looked up): as the sequence (Q96SW2 whole entry, looked up) above

[18] = target: T2, Protein cereblon/Androgen receptor; assay: PROTAC activity at CRBN/AR in human 22Rv1 cells assessed as induction of AR degradation by measuring maximal efficacy incubated for 24 hrs by Western blot analysis relative to control; format: cell-based
Target sequence in this assay (P10275 whole entry, looked up): as the sequence (P10275 whole entry, looked up) above
Target sequence in this assay (Q96SW2 whole entry, looked up): as the sequence (Q96SW2 whole entry, looked up) above

[19] = target: T1, Protein cereblon/Eukaryotic peptide chain release factor GTP-binding subunit ERF3A; assay: Molecular glue activity at CRBN/GSPT1 in human 22Rv1 cells assessed as increase in GSPT1 polyubiquitination at 30 nM preincubated with compound for 12 hrs followed by MG132 addition and measured after 12 hrs by immunoprecipitation based Western blot analysis; format: cell-based; conditions: time 24.0 hrs
[20] = tested on: Protein cereblon/Androgen receptor (Homo sapiens), P10275+Q96SW2 [UNDEFINED MUTATION]; assay: PROTAC activity at CRBN/Androgen receptor splice variant 7 in human 22Rv1 cells assessed as induction of AR-V7 degradation at 20 nM incubated for 6 hrs by Western blot analysis (reference value: 0%); format: cell-based
[21] = Cmax in male ICR mouse at 2 mg/kg, iv by LC-MS/MS analysis; format: ADME, organism-based; conditions: in vivo
[22] = target: T2, Protein cereblon/Androgen receptor; assay: PROTAC activity at CRBN/AR in human 22Rv1 cells assessed as decrease in PSA protein level incubated for 24 hrs by Western blot analysis; format: cell-based; conditions: dose 1-10 nM
Target sequence in this assay (P10275 whole entry, looked up): as the sequence (P10275 whole entry, looked up) above
Target sequence in this assay (Q96SW2 whole entry, looked up): as the sequence (Q96SW2 whole entry, looked up) above

[23] = AUC in male ICR mouse at 2 mg/kg, iv by LC-MS/MS analysis; format: ADME, organism-based; conditions: in vivo
[24] = target: T1, Protein cereblon/Eukaryotic peptide chain release factor GTP-binding subunit ERF3A; assay: Molecular glue activity at CRBN/GSPT1 in human 22Rv1 cells assessed as induction of GSPT1 degradation at 50 nM preincubated with MLN4924 followed by compound addition and measured after 12 hrs by Western blot analysis; format: cell-based
[25] = Cmax in male ICR mouse at 10 mg/kg, po by LC-MS/MS analysis; format: ADME, organism-based; conditions: in vivo
CWR22R [26] = assay: Effect on androgen receptor mRNA expression in human 22Rv1 cells at 1 to 10 nM incubated for 24 hrs by RT-PCR analysis; format: functional, cell-based; conditions: dose 1-10 nM
[27] = target: T1, Protein cereblon/Eukaryotic peptide chain release factor GTP-binding subunit ERF3A; assay: Molecular glue activity at CRBN/GSPT1 in human 22Rv1 cells assessed as induction of GSPT1 degradation at 20 nM incubated for 24 hrs by Western blot analysis (reference value: 0 %); format: cell-based
[28] = target: T2, Protein cereblon/Androgen receptor; assay: PROTAC activity at CRBN/AR in human 22Rv1 cells assessed as induction of AR degradation incubated for 24 hrs by Western blot analysis; format: cell-based
[29] = target: T2, Protein cereblon/Androgen receptor; assay: (§1) PROTAC activity at CRBN/Androgen receptor splice variant 7 in human 22Rv1 cells assessed as induction of AR-V7 degradation incubated for 24 hrs by Western blot analysis; format: cell-based
Target sequence in this assay (P10275 whole entry, looked up, change not shown): as the sequence (P10275 whole entry, looked up) above
Target sequence in this assay (Q96SW2 whole entry, looked up, change not shown): as the sequence (Q96SW2 whole entry, looked up) above

[30] = tested on: Protein cereblon/Androgen receptor (Homo sapiens), P10275+Q96SW2 [UNDEFINED MUTATION]; assay: as §1; format: cell-based
CWR22R [31] = assay: Upregulation of p53 signaling pathway related gene expression in human 22Rv1 cells at 3 nM incubated for 24 hrs by KEGG enrichment analysis; format: functional, cell-based
[32] = target: T2, Protein cereblon/Androgen receptor; assay: PROTAC activity at CRBN/AR in human 22Rv1 cells assessed as induction of AR degradation at 20 nM incubated for 2 hrs by Western blot analysis (reference value: 0 %); format: cell-based
[33] = Clearance in male ICR mouse at 2 mg/kg, iv by LC-MS/MS analysis; format: ADME, organism-based; conditions: in vivo

Chain of Protein cereblon/Androgen receptor (Homo sapiens), P10275+Q96SW2 [UNDEFINED MUTATION] (P10275 whole entry, looked up, stated change not applied, canonical isoform): as the sequence (P10275 whole entry, looked up) above
Chain of Protein cereblon/Androgen receptor (Homo sapiens), P10275+Q96SW2 [UNDEFINED MUTATION] (Q96SW2 whole entry, looked up, stated change not applied, canonical isoform): as the sequence (Q96SW2 whole entry, looked up) above
T1 sequence (P15170 whole entry, looked up): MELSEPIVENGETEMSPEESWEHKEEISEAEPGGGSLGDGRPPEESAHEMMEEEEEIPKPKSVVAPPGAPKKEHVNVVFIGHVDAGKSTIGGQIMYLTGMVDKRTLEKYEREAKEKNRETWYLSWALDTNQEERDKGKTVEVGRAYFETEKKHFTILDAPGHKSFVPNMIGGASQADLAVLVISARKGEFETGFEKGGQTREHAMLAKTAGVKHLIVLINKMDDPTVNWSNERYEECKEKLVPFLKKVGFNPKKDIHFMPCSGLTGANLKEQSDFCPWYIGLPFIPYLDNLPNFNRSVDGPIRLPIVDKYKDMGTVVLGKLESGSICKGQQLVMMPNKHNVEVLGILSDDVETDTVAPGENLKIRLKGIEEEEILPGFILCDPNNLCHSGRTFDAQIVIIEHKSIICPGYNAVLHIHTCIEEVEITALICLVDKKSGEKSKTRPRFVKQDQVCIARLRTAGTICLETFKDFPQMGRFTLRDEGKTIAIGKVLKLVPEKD
T1 sequence (Q96SW2 whole entry, looked up): as the sequence (Q96SW2 whole entry, looked up) above

## COc1ccc(C(C)(C)c2cc(Cl)c(OCC3CCN(C(=O)CCCCCNc4ccc5c(c4)C(=O)N(C4CCC(=O)NC4=O)C5=O)CC3)c(C#N)c2)cc1 (stereo not given)
22Rv1 [1]
  Activity: inactive
CWR22R [2]
  Activity: 55.6%
[3]
  Activity: Active
[4]
  Activity: 98.6%
[5]
  Activity: 74.6%
[6]
  Activity: inactive
[7]
  Activity: 49%
[8]
  Activity: inactive
[9]
  Activity: Active
[10]
  Activity: Active
[11]
  Activity: Active
LNCaP
  inhibition in vivo at 20 mg/kg: 60%
[12]
  Activity: 93.4%
[13]
  Activity: Active
[14]
  IC50: 25.1 nM
22Rv1 [15]
  Activity: inactive
[16]
  Ratio IC50: 588
[17]
  Emax: 78.7%
[18]
  Emax: 90%
[19]
  Activity: Active
[20]
  Activity: 20.1%
[21]
  Cmax: 1120 ng/mL
[22]
  Activity: Dose-dependent-effect
[23]
  AUC: 1850 ng·h/mL
[24]
  Activity: inactive
[25]
  Cmax: 206 ng/mL
CWR22R [26]
  Activity: Minimal_effect
[27]
  Activity: 98.1%
[28]
  Activity: Dose-dependent-effect
  DC50: 3.7 nM
[29]
  DC50: 3 nM
[30]
  Activity: Dose-dependent-effect
CWR22R [31]
  Activity: Active
[32]
  Activity: 56.3%
[33]
  clearance: 18 mL/min/kg
